{"source": "patent US6140347A", "about": "“Azetidine, pyrrolidine and piperidine derivatives as 5-HT receptor agonists” (Merck Sharp & Dohme Ltd., priority 1996, dated 2000)", "origin": "cited, not measured here", "key": {"[1]": {"conditions": "therapeutic doses"}, "[2]": {"system": "human 5-HT1Dα and 5-HT1Dβ receptor subtypes", "conditions": "cf. WO-A-91/17174, Table 1"}}, "data": [{"molecule": "CNS(=O)(=O)Cc1ccc2[nH]cc(CCN(C)C)c2c1", "note": "[sumatriptan]", "values": [{"measurement": "adverse cardiovascular events in humans (in words)", "setting": "[1]", "result": "certain adverse cardiovascular events"}, {"measurement": "discrimination between the human 5-HT1Dα and 5-HT1Dβ receptor subtypes (in words)", "setting": "[2]", "result": "barely discriminates"}]}]}
